The nature of data set [1]: Liver pharmacokinetics following a single oral dose in CD-1 mice. The settings on record: single oral dose 25 mg/kg in PEG 200, CD-1 male mice; given at 1 μmol/kg. The data set is classed as in vivo. The method in brief: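 Male CD-1 mice given 25 mg/kg test compound orally in PEG 200; liver snap-frozen in situ at 4, 12 and 24 h (3 per time). Liver 2′-MeGTP measured after TCA homogenization and anion-exchange SPE by LC-MS/MS, calibration 50–50000 pmol/g liver.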

For another data set, the system named is fresh human hepatocytes. The data set is described as follows: Release of active metabolite in fresh human hepatocytes. The format is in vitro ADME. To be noted: 10 μM compound. The method in brief: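 Overnight-acclimatized hepatocytes (0.8 million cells/well human, 0.5 million mouse) incubated at 37 °C with 10 μM test compound (0.1% DMSO). Sampled at 6, 24, 48 h (human) or 1, 4, 8, 12, 24 h (mouse); cells washed, extracted in cold 70% methanol, intracellular content quantified by LC-MS/MS with internal standard.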

As to `CCOc1nc(N)nc2c1ncn2[C@@H]1O[C@@H]2COP(=O)(OCCCC(=O)OC(C)C)O[C@H]2[C@@]1(C)F` (single isomer, unassigned) [Compound 20 Diastereomer 1], the “Ms Liver 2′-MeGTP AUC” value in data set [1] worked out at 410 pmol · hr/g at 1 μmol/kg. Further, in the data set on fresh human hepatocytes (fresh human hepatocytes), the “FHH TP Cmax” value is 88 pmol/mill cells. In addition, the “FHH TP AUC” value in the data set with fresh human hepatocytes (fresh human hepatocytes, 6, 24 and 48 hours) is reported as 2393 pmol · hr/mill cells.

Source of the values: patent publication US9296778B2, “3′,5′-cyclic phosphate prodrugs for HCV infection” (Idenix Pharmaceuticals, Inc., priority 2012, dated 2016).
